Laboratory results reported in US20140271716A1, “Intra-testicular Injection of Immunogens” (priority 2013, published 2014).

Experiments:
[1] = Zinc level in blood after intra-testicular injection of zinc acetate; details: pigs; for Zinc Concentration in blood: intra-testicular 0.5 ml (74 mg/ml) each testis
[2] = Zinc level in blood after intramuscular injection of zinc acetate; details: pigs, intramuscular 30 mg/kg

For `CC(=O)[O-].CC(=O)[O-].[Zn+2]` [zinc acetate], the mean residence time ([1]; intra-testicular) was roughly 60 h, the “time of second absorption phase after injection” value ([1]; intra-testicular) was 24 h and the “Zinc Concentration in blood” value ([1]; 0 Min (taken as zero)) was 0 μ mol/L. For the same molecule, the “Zinc Concentration in blood” value ([1]; 30 Min) was 8.44 μ mol/L, the “Zinc Concentration in blood” value ([1]; 1 hr.) was 7.49 μ mol/L and the “Zinc Concentration in blood” value ([1]; 2 hr.) was 5.65 μ mol/L. The “Zinc Concentration in blood” value ([1]; 3 hr.) was 5.27 μ mol/L, the “Zinc Concentration in blood” value ([1]; 4 hr.) was 4.96 μ mol/L and the “Zinc Concentration in blood” value ([1]; 6 hr.) was 4.06 μ mol/L. The “Zinc Concentration in blood” value ([1]; 8 hr.) was 4.43 μ mol/L, the “Zinc Concentration in blood” value ([1]; 12 hr.) was 3.87 μ mol/L and the “Zinc Concentration in blood” value ([1]; 24 hr.) was 4.43 μ mol/L. For the same molecule, the “Zinc Concentration in blood” value ([1]; 48 hr.) was 3.11 μ mol/L, the “Zinc Concentration in blood” value ([1]; 72 hr.) was −0.36 μ mol/L and the “Zinc Concentration in blood” value ([1]; 96 hr.) was −0.29 μ mol/L. The “Zinc Concentration in blood” value ([2]; 0 Min (physiological level)) was 45.3 μ mol/L, the “Zinc Concentration in blood” value ([2]; 30 min) was 194.08 μ mol/L and the “Zinc Concentration in blood” value ([2]; 1 hr.) was 76.17 μ mol/L. For the same molecule, the “Zinc Concentration in blood” value ([2]; 2 hr.) was 67.4 μ mol/L, the “Zinc Concentration in blood” value ([2]; 3 hr.) was 65.22 μ mol/L and the “Zinc Concentration in blood” value ([2]; 4 hr.) was 62.8 μ mol/L. For the same molecule, the “Zinc Concentration in blood” value ([2]; 6 hr.) was 61.6 μ mol/L, the “Zinc Concentration in blood” value ([2]; 8 hr.) was 60.8 μ mol/L and the “Zinc Concentration in blood” value ([2]; 12 hr.) was 54.3 μ mol/L. The “Zinc Concentration in blood” value ([2]; 16 hr.) was 48.7 μ mol/L, the “Zinc Concentration in blood” value ([2]; 24 hr.) was 47.3 μ mol/L and the “Zinc Concentration in blood” value ([2]; 36 hr.) was 44.5 μ mol/L. The “Zinc Concentration in blood” value ([2]; 48 hr.) was 44.2 μ mol/L.
